# From article PMC13124246 (European journal of medicinal chemistry, 2022)
# Structures can show the parent of a compound that is named as a salt.
# Assays:
# cruzain or TbrCatL = assay: Screening of the Krake et al. compound set against cruzain and TbrCatL; format: biochemical; conditions: 100 μM
# TbrCatL [1] = biological target: T1, TbrCatL (Trypanosoma brucei rhodesiense, UniProt Q95PM0); format: biochemical, T. brucei
# cruzain = cruzain (Trypanosoma cruzi, UniProt P25779); assay: Cruzain enzymatic inhibition assay; format: biochemical; conditions: for competitive behavior against cruzain: compound at 1 and 0.25 μM, substrate 0.156–10 μM
# [2] = system: Mouse myoblasts cell line C2C12; assay: Host cell cytotoxicity; format: cell-based; conditions: mouse myoblasts vs T. cruzi, compounds tested up to 10 μM
# cathepsins S (human) = conditions: human enzyme; cited from earlier work
# macrophages = conditions: cited from earlier work
# [3] = system: T. cruzi Y strain parasites; conditions: in vitro; cited from earlier work
# cathepsins B (rat) = conditions: rat enzyme; cited from earlier work
# TbrCatL [4] = biological target: T1, TbrCatL; conditions: read-out: IC50 TbrCatL; cited from earlier work
# Chain of cruzain (P25779 123-337 limits assumed): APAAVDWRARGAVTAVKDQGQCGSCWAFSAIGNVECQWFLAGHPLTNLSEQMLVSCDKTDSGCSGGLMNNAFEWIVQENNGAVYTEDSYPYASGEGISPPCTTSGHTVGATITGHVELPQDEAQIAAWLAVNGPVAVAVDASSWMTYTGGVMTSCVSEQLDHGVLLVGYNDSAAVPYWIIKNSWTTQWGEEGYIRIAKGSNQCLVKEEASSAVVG
structure (smiles),measurement,setting,value
CN(C)CCCNCc1ccc(-c2ccc(Cl)cc2Cl)o1 [Compound 9],average inhibition against cruzain or TbrCatL,cruzain or TbrCatL,greater than 70%
"NC(=S)N/N=C/c1ccc(-c2ccc(Br)cc2Cl)o1 [Compound 45, 2-((5-(4-bromo-2-chlorophenyl)furan-2-yl)methylene)hydrazine-1-carbothioamide]",effect of 0.1% Triton X-100 on IC50 against TbrCatL,TbrCatL [1],reduced the compounds’ potencies
same,competitive behavior against cruzain,cruzain,did not observe competitive behavior
same,SI: selectivity index determined as CC50/EC50,[2],> 370
"Clc1cc(Br)ccc1-c1ccc(CNCCN2CCOCC2)o1 [Compound 39, N-((5-(4-bromo-2-chlorophenyl)furan-2-yl)methyl)-2-morpholinoethan-1-amine dihydrochloride]",SI: selectivity index determined as CC50/EC50,[2],> 17
CN(C)CCCNCc1ccc(-c2ccc(Br)cc2)o1 [Compound 12],average inhibition against cruzain or TbrCatL,cruzain or TbrCatL,greater than 70%
"Clc1cc(Br)ccc1-c1ccc(CNCC2CCNCC2)o1 [MB12, 1-(5-(4-bromo-2-chlorophenyl)furan-2-yl)-N-(piperidin-4-ylmethyl)methanamine]",inhibition of cathepsin S,cathepsins S (human),did not inhibit
same,cytotoxicity by lactate dehydrogenase release,macrophages,no significant cytotoxicity
same,replication of T. cruzi Y strain parasites and release from macrophages,[3],decreased the replication
same,inhibition of cathepsin B,cathepsins B (rat),did not inhibit
same,IC50,TbrCatL [4],50 µM
"N/C(S)=N/N=C/c1ccc(-c2ccc(Cl)cc2)o1 [Compound 44, 2-((5-(4-chlorophenyl)furan-2-yl)methylene)hydrazine-1-carbothioamide]",effect of 0.1% Triton X-100 on IC50 against TbrCatL,TbrCatL [1],reduced the compounds’ potencies
same,IC50 against cruzain relative to IC50 against TbrCatL (fold higher),cruzain; Table 2 values,up to 25 fold
same,competitive behavior against cruzain,cruzain,did not observe competitive behavior
same,SI: selectivity index determined as CC50/EC50,[2],> 18
O=C(Cn1ccnc1[N+](=O)[O-])NCc1ccccc1 [Benznidazole],SI: selectivity index determined as CC50/EC50,[2],> 9
